Assay results: the NIST ThermoML archive (doi:10.1016/j.jct.2016.03.032)
± gives the expanded uncertainty stated by the source.

Experiment: mn = molality of the nth substance listed, in mol/kg
Settings: 298.15 K, Liquid, Frequency=10 MHz, Single path-length method

NCC(=O)N[C@@H](Cc1ccc(O)cc1)C(=O)NCC(=O)O [glycyl-L-tyrosylglycine] + O
speed of sound [m/s]
Settings | 10000 kPa | 20000 kPa | 40000 kPa | 60000 kPa | 80000 kPa | 100000 kPa | 120000 kPa
m1 = 0.02297 | 1516.3 ± 0.71 | 1533.1 ± 0.71 | 1566.7 ± 0.71 | 1600.1 ± 0.71 | 1633.5 ± 0.7 | 1666.6 ± 0.7 | 1699.5 ± 0.7
m1 = 0.02401 | 1516.5 ± 0.71 | 1533.2 ± 0.71 | 1566.8 ± 0.71 | 1600.3 ± 0.71 | 1633.6 ± 0.7 | 1666.8 ± 0.7 | 1699.6 ± 0.69
m1 = 0.02562 | 1516.7 ± 0.71 | 1533.5 ± 0.71 | 1567 ± 0.71 | 1600.5 ± 0.71 | 1633.9 ± 0.7 | 1667 ± 0.7 | 1699.8 ± 0.7
m1 = 0.02676 | 1516.8 ± 0.71 | 1533.6 ± 0.71 | 1567.2 ± 0.71 | 1600.7 ± 0.71 | 1634 ± 0.7 | 1667.1 ± 0.7 | 1700 ± 0.7
m1 = 0.02756 | 1516.9 ± 0.71 | 1533.7 ± 0.71 | 1567.3 ± 0.71 | 1600.8 ± 0.71 | 1634.1 ± 0.7 | 1667.3 ± 0.7 | 1700.1 ± 0.69
m1 = 0.02905 | 1517 ± 0.71 | 1533.9 ± 0.71 | 1567.4 ± 0.71 | 1601 ± 0.71 | 1634.3 ± 0.7 | 1667.5 ± 0.7 | 1700.3 ± 0.7

CC(C)C[C@H](NC(=O)CN)C(=O)NCC(=O)O [glycyl-L-leucylglycine] + O
speed of sound [m/s]
Settings | 10000 kPa | 20000 kPa | 40000 kPa | 60000 kPa | 80000 kPa | 100000 kPa | 120000 kPa
m1 = 0.02682 | 1517.5 ± 0.71 | 1534.2 ± 0.71 | 1567.7 ± 0.71 | 1601.1 ± 0.71 | 1634.4 ± 0.7 | 1667.5 ± 0.7 | 1700.2 ± 0.69
m1 = 0.03524 | 1518.6 ± 0.71 | 1535.4 ± 0.71 | 1568.9 ± 0.71 | 1602.3 ± 0.71 | 1635.6 ± 0.7 | 1668.7 ± 0.7 | 1701.4 ± 0.69
m1 = 0.04618 | 1520.2 ± 0.71 | 1537 ± 0.71 | 1570.6 ± 0.71 | 1604 ± 0.71 | 1637.2 ± 0.7 | 1670.2 ± 0.7 | 1702.9 ± 0.7
m1 = 0.05878 | 1522.1 ± 0.71 | 1538.9 ± 0.71 | 1572.4 ± 0.71 | 1605.8 ± 0.71 | 1639 ± 0.7 | 1672 ± 0.7 | 1704.7 ± 0.69
m1 = 0.06956 | 1523.7 ± 0.71 | 1540.5 ± 0.71 | 1574 ± 0.71 | 1607.3 ± 0.71 | 1640.6 ± 0.7 | 1673.5 ± 0.7 | 1706.2 ± 0.69
m1 = 0.07978 | 1525.2 ± 0.71 | 1542 ± 0.71 | 1575.5 ± 0.71 | 1608.8 ± 0.71 | 1642 ± 0.7 | 1674.9 ± 0.7 | 1707.5 ± 0.69
